US11000033B2, “Ketone or oxime compound, and herbicide” (NISSAN CHEMICAL CORPORATION, priority 2014, dated 2021)

How the values were obtained:
Format in all cases: in vivo
[1] = system: Echinochloa oryzacola Vasing.; assay: Test Example 1: herbicidal activity, application before weed generation in submerged conditions (symbol A)
Method in brief: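 0–5 visual score, 3 wk post-application. Submerged pots, alluvial soil, water 4 cm; seeds sown mixed, rice at 2.5 leaves transplanted. Emulsion diluted to predetermined dose, applied to water surface at sowing. 25–30 °C greenhouse.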

[2] = system: Lolium multiflorum Lam.; assay: Test Example 5: herbicidal effect by foliage application, plastic box (symbol K); details: 3 weeks after application
Method in brief: (§1)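 Visual herbicidal score, taken three weeks post-application, of seedlings sprayed on the foliage with water-diluted emulsion at a predetermined amount; plants were 14 days old, greenhouse-raised at 25° C. to 30° C.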

[3] = system: Scirpus juncoides; assay: Test Example 2: herbicidal activity, application during weed generation in submerged conditions (symbol B); details: Table 23, grade 0-5 by criteria of Test Example 1
Method in brief: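 Treatment timing was the one- to two-leaf stage, with diluted emulsifiable compound dropped onto the paddy water (depth 4 cm) over alluvial soil. All three species grew from a mixed sowing in a 25° C. to 30° C. greenhouse. Injury was judged by eye 3 weeks on.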

[4] = system: Galium spurium; assay: Test Example 4: herbicidal effect by soil treatment (symbol Q)
Method in brief: (§2)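 Seeds were sown in sterilized diluvial soil, covered with about 1.5 cm of soil, and the soil surface was sprayed with a water-diluted emulsion of the compound at a predetermined rate. Plants grew in a greenhouse at 25° C. to 30° C.; effects were scored visually 3 weeks after application.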

[5] = system: Echinochloa crus-galli var. crus-galli; assay: Test Example 4: herbicidal effect by soil treatment (symbol H)
Method in brief: as §2

[6] = system: Stellaria media; assay: Test Example 5: herbicidal effect by foliage application, plastic box (symbol P); details: 3 weeks after application
Method in brief: as §1

[7] = system: Galium spurium; assay: Test Example 5: herbicidal effect by foliage application, plastic box (symbol Q); details: 320 g/ha, 3 weeks after application
Method in brief: as §1

[8] = system: Veronica persica; assay: Test Example 5: herbicidal effect by foliage application, plastic box (symbol R); details: 3 weeks after application
Method in brief: as §1

[9] = system: Apera spica-venti; assay: Test Example 5: herbicidal effect by foliage application, plastic box (symbol L); details: 3 weeks after application
Method in brief: as §1

[10] = system: Abutilon theophrasti; assay: Test Example 5: herbicidal effect by foliage application, plastic box (symbol M); details: 3 weeks after application
Method in brief: as §1

[11] = system: Avena fatua; assay: Test Example 5: herbicidal effect by foliage application, plastic box (symbol I); details: 3 weeks after application
Method in brief: as §1

[12] = system: corn; assay: Test Example 4: effect on crop by soil treatment (symbol c)
Method in brief: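 Greenhouse culture at 25° C. to 30° C. followed sowing of seed in spots on sterilized diluvial soil with a soil cover close to 1.5 cm thick.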

[13] = system: rapeseed; assay: Test Example 4: effect on crop by soil treatment (symbol g)
Method in brief: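 Crop seeds, among them rice, wheat, beet and rapeseed, were sown in sterilized diluvial soil and covered with about 1.5 cm of soil. Boxes were kept in a greenhouse at 25° C. to 30° C. for plant growth.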

[14] = system: Cyperus difformis; assay: Test Example 3: herbicidal effect by foliage application, Wagner pot (symbol E)
Method in brief: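 The compound, formulated as an emulsion and diluted with water to a predetermined rate, is applied uniformly to leaves of two-week-old seedlings growing in submerged alluvial soil at 25–30 °C. Rice is included. Each plant is assessed 3 weeks later using defined criteria.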

[15] = system: Amaranthus retroflexus; assay: Test Example 4: herbicidal effect by soil treatment (symbol N)
Method in brief: as §2

[16] = system: Amaranthus retroflexus; assay: Test Example 5: herbicidal effect by foliage application, plastic box (symbol N); details: 3 weeks after application
Method in brief: as §1

[17] = application herbicide amount 320 g/ha
[18] = application herbicide amount 192 g/ha

Row | SMILES | Herbicidal effect grade, A: Echinochloa oryzacola Vasing. [1, 17] | K: Lolium multiflorum Lam., herbicidal effect (criteria 0-5) ([2]; 320 g/ha) | Herbicidal effect grade, B: Scirpus juncoides [3, 17] | Q: Galium spurium, herbicidal effect grade ([4]; 320 g/ha) | H: Echinochloa crus-galli var. crus-galli, herbicidal effect grade ([5]; 320 g/ha) | P: Stellaria media, herbicidal effect (criteria 0-5) ([6]; 320 g/ha) | R: Veronica persica, herbicidal effect (criteria 0-5) ([8]; 320 g/ha) | L: Apera spica-venti, herbicidal effect (criteria 0-5) ([9]; 320 g/ha) | M: Abutilon theophrasti, herbicidal effect (criteria 0-5) ([10]; 320 g/ha) | I: Avena fatua, herbicidal effect (criteria 0-5) ([11]; 320 g/ha) | c: corn, effect grade on crop ([12]; 320 g/ha) | g: rapeseed, effect grade on crop ([13]; 320 g/ha) | herbicidal effect on E, grade 0-5 [14, 17] | N: Amaranthus retroflexus, herbicidal effect grade ([15]; 320 g/ha) | N: Amaranthus retroflexus, herbicidal effect (criteria 0-5) ([16]; 320 g/ha) | also measured
1 | CC(CC1CC(O)=C(c2c(C)cc(C)cc2C)C1=O)=NOCc1ccc(Cl)cc1 (stereo not shown) [1-137] | 5 (Herbicidal ratio of 90% or more (almost completely withered)) | 5 (Herbicidal ratio of 90% or more (almost completely withered)) | 4 (Herbicidal ratio of 70% or higher and lower than 90%) | 0 (Herbicidal ratio of 5% or lower (almost no effect)) | 5 (Herbicidal ratio of 90% or more (almost completely withered)) | 0 (Herbicidal ratio of 5% or lower (almost no effect)) | 2 (Herbicidal ratio of 20% or higher and lower than 40%) | 5 (Herbicidal ratio of 90% or more (almost completely withered)) | 4 (Herbicidal ratio of 70% or higher and lower than 90%) | 5 (Herbicidal ratio of 90% or more (almost completely withered)) | 0 (Herbicidal ratio of 5% or lower (almost no effect)) | 0 (Herbicidal ratio of 5% or lower (almost no effect)) | – | – | – | Q: Galium spurium, herbicidal effect (criteria 0-5) [7]: 0 (Herbicidal ratio of 5% or lower (almost no effect))
2 | CON=C(C)CC1CC(OC(=O)N(C)C)=C(c2c(C)cc(C)cc2C)C1=O (stereo not shown) [1-108] | 5 (Herbicidal ratio of 90% or more (almost completely withered)) | 5 (Herbicidal ratio of 90% or more (almost completely withered)) | 3 (Herbicidal ratio of 40% or higher and lower than 70%) | 0 (Herbicidal ratio of 5% or lower (almost no effect)) | 5 (Herbicidal ratio of 90% or more (almost completely withered)) | 3 (Herbicidal ratio of 40% or higher and lower than 70%) | 1 (Herbicidal ratio of 5% or higher and lower than 20%) | 5 (Herbicidal ratio of 90% or more (almost completely withered)) | 4 (Herbicidal ratio of 70% or higher and lower than 90%) | 5 (Herbicidal ratio of 90% or more (almost completely withered)) | 5 (Herbicidal ratio of 90% or more (almost completely withered)) | 4 (Herbicidal ratio of 70% or higher and lower than 90%) | 5 (Herbicidal ratio of 90% or more (almost completely withered)) | 0 (Herbicidal ratio of 5% or lower (almost no effect)) | 5 (Herbicidal ratio of 90% or more (almost completely withered)) | –
3 | CON=C(C)CC1CC(OC(=O)C2CCCO2)=C(c2c(C)cc(C)cc2C)C1=O (stereo not shown) [1-076] | – | – | – | – | – | – | – | – | – | – | – | – | – | – | – | herbicidal effect on E, grade 0-5 [14, 18]: 5 (Herbicidal ratio of 90% or more (almost completely withered)); Herbicidal effect grade, A: Echinochloa oryzacola Vasing. [1, 18]: 4 (Herbicidal ratio of 70% or higher and lower than 90%); K: Lolium multiflorum Lam., herbicidal effect (criteria 0-5) ([2]; 192 g/ha): 5 (Herbicidal ratio of 90% or more (almost completely withered)); Herbicidal effect grade, B: Scirpus juncoides [3, 18]: 4 (Herbicidal ratio of 70% or higher and lower than 90%); N: Amaranthus retroflexus, herbicidal effect grade ([15]; 192 g/ha): 4 (Herbicidal ratio of 70% or higher and lower than 90%); Q: Galium spurium, herbicidal effect grade ([4]; 192 g/ha): 0 (Herbicidal ratio of 5% or lower (almost no effect)); H: Echinochloa crus-galli var. crus-galli, herbicidal effect grade ([5]; 192 g/ha): 5 (Herbicidal ratio of 90% or more (almost completely withered)); P: Stellaria media, herbicidal effect (criteria 0-5) ([6]; 192 g/ha): 3 (Herbicidal ratio of 40% or higher and lower than 70%); R: Veronica persica, herbicidal effect (criteria 0-5) ([8]; 192 g/ha): 3 (Herbicidal ratio of 40% or higher and lower than 70%); L: Apera spica-venti, herbicidal effect (criteria 0-5) ([9]; 192 g/ha): 5 (Herbicidal ratio of 90% or more (almost completely withered)); N: Amaranthus retroflexus, herbicidal effect (criteria 0-5) ([16]; 192 g/ha): 0 (Herbicidal ratio of 5% or lower (almost no effect)); M: Abutilon theophrasti, herbicidal effect (criteria 0-5) ([10]; 192 g/ha): 4 (Herbicidal ratio of 70% or higher and lower than 90%); I: Avena fatua, herbicidal effect (criteria 0-5) ([11]; 192 g/ha): 5 (Herbicidal ratio of 90% or more (almost completely withered)); c: corn, effect grade on crop ([12]; 192 g/ha): 2 (Herbicidal ratio of 20% or higher and lower than 40%); g: rapeseed, effect grade on crop ([13]; 192 g/ha): 4 (Herbicidal ratio of 70% or higher and lower than 90%)
4 | CON=C(C)CC1CC(OC(=O)N2CCOCC2)=C(c2c(C)cc(C)cc2C)C1=O (stereo not shown) [1-104] | 5 (Herbicidal ratio of 90% or more (almost completely withered)) | 5 (Herbicidal ratio of 90% or more (almost completely withered)) | 4 (Herbicidal ratio of 70% or higher and lower than 90%) | 0 (Herbicidal ratio of 5% or lower (almost no effect)) | 5 (Herbicidal ratio of 90% or more (almost completely withered)) | 1 (Herbicidal ratio of 5% or higher and lower than 20%) | 1 (Herbicidal ratio of 5% or higher and lower than 20%) | 5 (Herbicidal ratio of 90% or more (almost completely withered)) | 3 (Herbicidal ratio of 40% or higher and lower than 70%) | 5 (Herbicidal ratio of 90% or more (almost completely withered)) | 1 (Herbicidal ratio of 5% or higher and lower than 20%) | 2 (Herbicidal ratio of 20% or higher and lower than 40%) | 5 (Herbicidal ratio of 90% or more (almost completely withered)) | 0 (Herbicidal ratio of 5% or lower (almost no effect)) | 0 (Herbicidal ratio of 5% or lower (almost no effect)) | –
5 | CC(CC1CC(O)=C(c2c(C)cc(C)cc2C)C1=O)=NOCC1CC1(F)F (stereo not shown) [1-109] | 5 (Herbicidal ratio of 90% or more (almost completely withered)) | 5 (Herbicidal ratio of 90% or more (almost completely withered)) | 5 (Herbicidal ratio of 90% or more (almost completely withered)) | 0 (Herbicidal ratio of 5% or lower (almost no effect)) | 5 (Herbicidal ratio of 90% or more (almost completely withered)) | 3 (Herbicidal ratio of 40% or higher and lower than 70%) | 3 (Herbicidal ratio of 40% or higher and lower than 70%) | 5 (Herbicidal ratio of 90% or more (almost completely withered)) | 3 (Herbicidal ratio of 40% or higher and lower than 70%) | 5 (Herbicidal ratio of 90% or more (almost completely withered)) | 1 (Herbicidal ratio of 5% or higher and lower than 20%) | 4 (Herbicidal ratio of 70% or higher and lower than 90%) | 5 (Herbicidal ratio of 90% or more (almost completely withered)) | 3 (Herbicidal ratio of 40% or higher and lower than 70%) | 0 (Herbicidal ratio of 5% or lower (almost no effect)) | –
